Test results taken from patent US10472324B2, “2-cyano-3-cyclopropyl-3-hydroxy-N-aryl-thioacrylamide derivatives” (Algiax Pharmaceuticals GmbH, priority 2014, dated 2019).
pIC50: −log10 of the molar value.

target: GABA gated Cl-channel (GABA.A receptor complex); experiment: GABAA receptor binding assay ([35S]TBPS radioligand); conditions: 3 nM [35S]TBPS, rat cerebral cortex membrane homogenates, 120 min at 22° C.
Procedure: GABAA Receptor Binding Assay:
The affinity of the test compounds for the GABA gated Cl-channel (GABA.A receptor complex) in the rat cerebral cortex was determined in a radioligand binding assay (Lewin et al,. 1989). Membrane homogenates of cerebral cortex are incubated for 120 min at 22° C. with 3 nM [35S]TBPS (-t-butylbicyclophosphoorothionate) in the presence and absence of the test compound.
Following incubation, the samples are filtered rapidly under vacuum through glass fiber filters and rinsed several times with ice-cold buffer using a 96-sample cell harvester. The filters are dried then counted for radioactivity in a scintilliation counter using a scintillation cocktail (Microscint 0, Packard). Each compound was tested at several concentrations to calculate the IC50 values of the affinity to the GABA.A receptor complex in cerebral cortex of rats.

Row | Structure (SMILES) | pIC50
1 | Cc1cc(NC(=S)C(C#N)=C(O)C2CC2)ccc1C(F)(F)F [Example 1, 2-Cyano-3-cyclopropyl-3-hydroxy-N-(3-methyl-4-trifluormethyl-phenyl)-thioacrylamide] | 5.28
2 | Cc1cc(NC(=S)C(C#N)=C(O)C2CC2)ccc1F [Example 2, 2-Cyano-3-cyclopropyl-N-(4-fluoro-3-methyl-phenyl)-3-hydroxy-thioacrylamide] | 5.08
3 | Cc1cc(NC(=S)C(C#N)=C(O)C2CC2)ccc1[N+](=O)[O-] [Example 3, 2-Cyano-3-cyclopropyl-3-hydroxy-N-(3-methyl-4-nitro-phenyl)-thioacrylamide] | 5.22
4 | N#CC(C(=S)Nc1ccc([N+](=O)[O-])cc1)=C(O)C1CC1 [Example 4, 2-Cyano-3-cyclopropyl-3-hydroxy-N-(4-nitro-phenyl)-thioacrylamide] | 5.06

target: human GABAA α3β3γ2 (Homo sapiens (Human), UniProt P18507+P28472+P34903); experiment: Patch clamp electrophysiology, positive modulation, HEK293 cells expressing GABAA α3β3γ2; type: cell-based; conditions: 10 μM test compound; GABA EC20 current = 100%
Sequence (P34903 29-492): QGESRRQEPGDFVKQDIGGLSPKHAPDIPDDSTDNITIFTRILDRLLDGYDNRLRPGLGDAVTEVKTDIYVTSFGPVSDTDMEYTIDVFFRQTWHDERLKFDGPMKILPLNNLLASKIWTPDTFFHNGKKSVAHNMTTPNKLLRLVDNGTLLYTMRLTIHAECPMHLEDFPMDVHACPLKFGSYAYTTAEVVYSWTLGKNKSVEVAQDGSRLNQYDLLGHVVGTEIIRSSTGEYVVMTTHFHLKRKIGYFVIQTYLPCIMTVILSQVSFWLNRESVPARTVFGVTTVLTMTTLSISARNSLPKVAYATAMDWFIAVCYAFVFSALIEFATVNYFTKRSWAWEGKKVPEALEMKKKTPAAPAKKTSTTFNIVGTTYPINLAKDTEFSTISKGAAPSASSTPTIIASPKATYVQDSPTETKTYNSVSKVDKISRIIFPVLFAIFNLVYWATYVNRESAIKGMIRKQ
Sequence (P28472 26-473): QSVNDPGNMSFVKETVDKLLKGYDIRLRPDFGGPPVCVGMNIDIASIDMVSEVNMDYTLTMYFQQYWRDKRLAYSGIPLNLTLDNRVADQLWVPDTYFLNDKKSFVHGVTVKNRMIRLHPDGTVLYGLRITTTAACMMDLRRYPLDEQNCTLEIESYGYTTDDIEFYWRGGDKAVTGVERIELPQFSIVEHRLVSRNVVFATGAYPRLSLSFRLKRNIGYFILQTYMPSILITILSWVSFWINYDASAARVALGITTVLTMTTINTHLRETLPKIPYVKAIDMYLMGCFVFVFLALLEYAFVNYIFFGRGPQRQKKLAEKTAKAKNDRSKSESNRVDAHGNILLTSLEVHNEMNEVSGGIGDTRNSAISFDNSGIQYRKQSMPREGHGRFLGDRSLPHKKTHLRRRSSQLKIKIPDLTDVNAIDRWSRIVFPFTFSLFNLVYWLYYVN
Sequence (P18507 40-475): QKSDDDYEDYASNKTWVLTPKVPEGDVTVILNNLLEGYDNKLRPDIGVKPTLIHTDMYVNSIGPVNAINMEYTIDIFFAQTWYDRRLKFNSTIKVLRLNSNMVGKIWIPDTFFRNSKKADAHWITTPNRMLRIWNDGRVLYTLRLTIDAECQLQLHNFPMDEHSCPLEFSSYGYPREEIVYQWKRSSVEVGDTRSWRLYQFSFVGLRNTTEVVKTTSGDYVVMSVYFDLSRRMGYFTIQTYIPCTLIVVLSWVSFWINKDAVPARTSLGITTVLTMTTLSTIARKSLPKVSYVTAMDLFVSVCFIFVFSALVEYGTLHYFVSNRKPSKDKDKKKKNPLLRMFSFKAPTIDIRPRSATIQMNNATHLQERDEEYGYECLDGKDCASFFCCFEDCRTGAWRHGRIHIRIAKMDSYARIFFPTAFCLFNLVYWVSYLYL
From the text: (§1) Electrophysiological assays on different subunit combinations of the human GABAA receptor complex.
(§2) The functional positive modulation activity of the test compounds were investigated by using patch clamp techniques on HEK293 cells stably expressing different subunit combinations of the human GABAA receptor complex. In brief, the peak inward currents in response to the GABA (natural ligand of the GABAA receptors) additions in the presence of increasing concentrations of test compound were measured. To calculate the positive modulation activity the mean effect of GABA (EC20 concentration) was set to 100%.
(§3) A value of 100 percent equates to the compound having an effect equivalent to the addition of the EC20 concentration of GABA.

Row | Structure (SMILES) | GABAA α3β3γ2 normalized percent current [%]
5 | Cc1cc(NC(=S)C(C#N)=C(O)C2CC2)ccc1C(F)(F)F [Example 1, 2-Cyano-3-cyclopropyl-3-hydroxy-N-(3-methyl-4-trifluormethyl-phenyl)-thioacrylamide] | 697

same assay, conditions: 50 μM test compound; GABA EC20 current = 100%

Row | Structure (SMILES) | GABAA α3β3γ2 normalized percent current [%]
6 | Cc1cc(NC(=S)C(C#N)=C(O)C2CC2)ccc1F [Example 2, 2-Cyano-3-cyclopropyl-N-(4-fluoro-3-methyl-phenyl)-3-hydroxy-thioacrylamide] | 835
7 | Cc1cc(NC(=S)C(C#N)=C(O)C2CC2)ccc1[N+](=O)[O-] [Example 3, 2-Cyano-3-cyclopropyl-3-hydroxy-N-(3-methyl-4-nitro-phenyl)-thioacrylamide] | 469

target: human GABAA α2β3γ2 (Homo sapiens (Human), UniProt P18507+P28472+P47869); experiment: Patch clamp electrophysiology, positive modulation, HEK293 cells expressing GABAA α2β3γ2; type: cell-based; conditions: 10 μM test compound; GABA EC20 current = 100%
Sequence (P47869 29-451): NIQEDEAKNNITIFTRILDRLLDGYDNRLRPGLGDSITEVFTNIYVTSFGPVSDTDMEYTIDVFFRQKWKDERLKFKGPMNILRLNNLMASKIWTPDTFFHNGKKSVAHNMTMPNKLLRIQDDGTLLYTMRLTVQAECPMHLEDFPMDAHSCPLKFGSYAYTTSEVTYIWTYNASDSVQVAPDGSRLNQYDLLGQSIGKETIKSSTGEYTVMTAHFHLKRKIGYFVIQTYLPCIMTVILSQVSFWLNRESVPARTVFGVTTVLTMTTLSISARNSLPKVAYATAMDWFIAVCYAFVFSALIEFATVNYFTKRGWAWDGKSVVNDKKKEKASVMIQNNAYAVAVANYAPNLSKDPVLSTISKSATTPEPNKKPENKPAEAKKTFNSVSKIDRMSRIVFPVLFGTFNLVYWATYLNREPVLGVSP
Sequence (P28472 26-473): as the sequence (P28472 26-473) above
Sequence (P18507 40-475): as the sequence (P18507 40-475) above
From the text: as §1, §2, §3

Row | Structure (SMILES) | GABAA α2β3γ2 normalized percent current [%]
8 | Cc1cc(NC(=S)C(C#N)=C(O)C2CC2)ccc1C(F)(F)F [Example 1, 2-Cyano-3-cyclopropyl-3-hydroxy-N-(3-methyl-4-trifluormethyl-phenyl)-thioacrylamide] | 614

same assay, conditions: 50 μM test compound; GABA EC20 current = 100%

Row | Structure (SMILES) | GABAA α2β3γ2 normalized percent current [%]
9 | Cc1cc(NC(=S)C(C#N)=C(O)C2CC2)ccc1F [Example 2, 2-Cyano-3-cyclopropyl-N-(4-fluoro-3-methyl-phenyl)-3-hydroxy-thioacrylamide] | 470
10 | Cc1cc(NC(=S)C(C#N)=C(O)C2CC2)ccc1[N+](=O)[O-] [Example 3, 2-Cyano-3-cyclopropyl-3-hydroxy-N-(3-methyl-4-nitro-phenyl)-thioacrylamide] | 380

target: human GABAA α1β3γ2 (Homo sapiens (Human), UniProt P14867+P18507+P28472); experiment: Patch clamp electrophysiology, positive modulation, HEK293 cells expressing GABAA α1β3γ2; type: cell-based; conditions: 10 μM test compound; GABA EC20 current = 100%
Sequence (P14867 28-456): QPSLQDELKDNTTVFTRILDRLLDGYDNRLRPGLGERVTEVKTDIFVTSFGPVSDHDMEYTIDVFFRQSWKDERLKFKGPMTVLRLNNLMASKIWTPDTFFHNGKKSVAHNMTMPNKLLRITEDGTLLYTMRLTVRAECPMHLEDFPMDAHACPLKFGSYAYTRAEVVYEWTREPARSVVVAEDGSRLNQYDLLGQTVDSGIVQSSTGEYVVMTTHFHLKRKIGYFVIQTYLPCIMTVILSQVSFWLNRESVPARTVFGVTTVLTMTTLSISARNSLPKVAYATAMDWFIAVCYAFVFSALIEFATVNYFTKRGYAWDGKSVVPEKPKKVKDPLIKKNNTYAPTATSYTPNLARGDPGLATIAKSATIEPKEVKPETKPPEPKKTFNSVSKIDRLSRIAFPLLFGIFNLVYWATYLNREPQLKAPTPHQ
Sequence (P28472 26-473): as the sequence (P28472 26-473) above
Sequence (P18507 40-475): as the sequence (P18507 40-475) above
From the text: as §1, §2, §3

Row | Structure (SMILES) | GABAA α1β3γ2 normalized percent current [%]
11 | Cc1cc(NC(=S)C(C#N)=C(O)C2CC2)ccc1C(F)(F)F [Example 1, 2-Cyano-3-cyclopropyl-3-hydroxy-N-(3-methyl-4-trifluormethyl-phenyl)-thioacrylamide] | 792

same assay, conditions: 50 μM test compound; GABA EC20 current = 100%

Row | Structure (SMILES) | GABAA α1β3γ2 normalized percent current [%]
12 | Cc1cc(NC(=S)C(C#N)=C(O)C2CC2)ccc1F [Example 2, 2-Cyano-3-cyclopropyl-N-(4-fluoro-3-methyl-phenyl)-3-hydroxy-thioacrylamide] | 734
13 | Cc1cc(NC(=S)C(C#N)=C(O)C2CC2)ccc1[N+](=O)[O-] [Example 3, 2-Cyano-3-cyclopropyl-3-hydroxy-N-(3-methyl-4-nitro-phenyl)-thioacrylamide] | 424

tested on: neuropathic pain induced by spinal nerve ligation (SNL) injury; experiment: SNL model or Chung model for peripheral neuropathic pain, mechanical allodynia (von Frey); type: in vivo, rat; conditions: 10 mg/kg oral gavage for 5 days, rat
Procedure: SNL model or Chung model as in vivo model for peripheral neuropathic pain
Surgery was performed according to the method of Chung et al., 2004 (see List of References). In brief, animals are anesthetized and the hair on their backs is trimmed. Under sterile conditions, a longitudinal incision is made at the lower lumbar and sacral levels, exposing the paraspinal muscles on the left. Connective tissues and muscles are removed by a small scraper, after which bony structures become visible. The L6 vertebra left transverse process of animal was first removed to expose the L4 and L5 spinal nerves. The L5 spinal nerve was then carefully isolated and tightly ligated with 6-0 silk thread. Surgery was always performed on the left leg (Ipsilateral paw), the right leg (contralateral paw) remained intact and served as a control. On completion of the operation, hemostasis is confirmed and the muscles are sutured in layers using silk thread and the skin is closed with metal clips, anesthesia is then discontinued. Axonal degeneration occurs, with all types of axons being approximately equally affected. Pronounced mechanical allodynia follows, accompanied by spontaneous pain behaviors, which lasts for several weeks without recovery. Mechanical allodynia is typically assessed beginning 1-2 weeks post-surgery.
(§4) Mechanical allodynia thresholds were determined according to the methods described by Chaplan and colleagues (Chaplan et al., 1994). At the designated post-operative time points the injured rats were placed in an elevated clear-plastic, wire mesh-bottomed cage. After a 10- to 15-min acclimation period, eight von Frey filaments (Stoelting, Wood Dale, Ill.) with bending forces ranging from 2 to 60 g were used to determine the 50% mechanical threshold for paw withdrawal using the up-and-down method.
After spinal nerve ligation (SNL) injury, individual rats were randomly assigned into a treatment group. The following groups were used:
Group 2: SNL+ Example 1 (10 mg/kg) in vehicle by oral gavage for 5 days from DPO7 (pre-treat) till DPO12.
Group 3: SNL+ Example 2 (10 mg/kg) in vehicle by oral gavage for 5 days from DPO7 (pre-treat) till DPO12.
Group 2: SNL+ Example 3 (10 mg/kg) in vehicle by oral gavage for 5 days from DPO14 till DPO19.
Group 3: SNL+ Example 4 (10 mg/kg) in vehicle by oral gavage for 5 days from DPO14 till DPO19.
Group 4: SNL+ Example 6 (10 mg/kg) in vehicle by oral gavage for 5 days from DPO14 till DPO19.

Row | Structure (SMILES) | reversal of neuropathic pain induced by spinal nerve ligation
14 | Cc1cc(NC(=S)C(C#N)=C(O)C2CC2)ccc1C(F)(F)F [Example 1, 2-Cyano-3-cyclopropyl-3-hydroxy-N-(3-methyl-4-trifluormethyl-phenyl)-thioacrylamide] | can reverse neuropathic pain
15 | Cc1cc(NC(=S)C(C#N)=C(O)C2CC2)ccc1F [Example 2, 2-Cyano-3-cyclopropyl-N-(4-fluoro-3-methyl-phenyl)-3-hydroxy-thioacrylamide] | can reverse neuropathic pain
16 | Cc1cc(NC(=S)C(C#N)=C(O)C2CC2)ccc1[N+](=O)[O-] [Example 3, 2-Cyano-3-cyclopropyl-3-hydroxy-N-(3-methyl-4-nitro-phenyl)-thioacrylamide] | can reverse neuropathic pain
17 | N#CC(C(=S)Nc1ccc([N+](=O)[O-])cc1)=C(O)C1CC1 [Example 4, 2-Cyano-3-cyclopropyl-3-hydroxy-N-(4-nitro-phenyl)-thioacrylamide] | can reverse neuropathic pain

same assay, conditions: Experiment 1, 10 mg/kg oral gavage 5 days DPO7-DPO12; at DPO21; cut-off 60 g

Row | Structure (SMILES) | 50% paw withdrawal threshold [g]
18 | Cc1cc(NC(=S)C(C#N)=C(O)C2CC2)ccc1F [Example 2, 2-Cyano-3-cyclopropyl-N-(4-fluoro-3-methyl-phenyl)-3-hydroxy-thioacrylamide] | 40

same assay, conditions: Experiment 1, 10 mg/kg oral gavage 5 days DPO7-DPO12; at DPO35 (end of experiment); cut-off 60 g

Row | Structure (SMILES) | 50% paw withdrawal threshold [g]
19 | Cc1cc(NC(=S)C(C#N)=C(O)C2CC2)ccc1C(F)(F)F [Example 1, 2-Cyano-3-cyclopropyl-3-hydroxy-N-(3-methyl-4-trifluormethyl-phenyl)-thioacrylamide] | 30
20 | Cc1cc(NC(=S)C(C#N)=C(O)C2CC2)ccc1F [Example 2, 2-Cyano-3-cyclopropyl-N-(4-fluoro-3-methyl-phenyl)-3-hydroxy-thioacrylamide] | 40

same assay, conditions: Experiment 2, 10 mg/kg oral gavage 5 days DPO14-DPO19; after DPO21 till end of experiment at DPO35; cut-off 60 g

Row | Structure (SMILES) | 50% paw withdrawal threshold [g]
21 | Cc1cc(NC(=S)C(C#N)=C(O)C2CC2)ccc1[N+](=O)[O-] [Example 3, 2-Cyano-3-cyclopropyl-3-hydroxy-N-(3-methyl-4-nitro-phenyl)-thioacrylamide] | 23 to 25
22 | N#CC(C(=S)Nc1ccc([N+](=O)[O-])cc1)=C(O)C1CC1 [Example 4, 2-Cyano-3-cyclopropyl-3-hydroxy-N-(4-nitro-phenyl)-thioacrylamide] | 30

same assay, conditions: Experiment 2, 10 mg/kg oral gavage 5 days DPO14-DPO19; at DPO21; cut-off 60 g

Row | Structure (SMILES) | 50% paw withdrawal threshold
23 | Cc1cc(NC(=S)C(C#N)=C(O)C2CC2)ccc1[N+](=O)[O-] [Example 3, 2-Cyano-3-cyclopropyl-3-hydroxy-N-(3-methyl-4-nitro-phenyl)-thioacrylamide] | about 35 g
24 | N#CC(C(=S)Nc1ccc([N+](=O)[O-])cc1)=C(O)C1CC1 [Example 4, 2-Cyano-3-cyclopropyl-3-hydroxy-N-(4-nitro-phenyl)-thioacrylamide] | ~50 g

tested on: acute pain induced by capsaicin injection in the hindpaw; experiment: Capsaicin induced pain model for acute pain, mechanical allodynia (von Frey); type: in vivo, rat; conditions: 1 or 10 mg/kg oral gavage, rat hindpaw
Procedure: as §4
Capsaicin induced pain as in vivo model for acute pain
Rats were gently restrained and capsaicin (10 μg in 10 μI of 10% Tween80) in saline was injected into the plantar surface of the hindpaw using a 0.3 ml insulin syringe with a 29-gauge needle (Terumo Europe, Belgium).
After injection of Capsaicin, individual rats were randomly assigned into a treatment group. The following groups were used:
Group 2: Capsaicin injection+ Example 1 (1 mg/kg) in vehicle by oral gavage about 40 minutes after injection.
Group 3: Capsaicin injection+ Example 3 (1 mg/kg) in vehicle by oral gavage about 40 minutes after injection.
Group 2: Capsaicin injection+ Example 2 (10 mg/kg) in vehicle by oral gavage about 40 minutes after injection.
Group 3: Capsaicin injection+ Example 6 (10 mg/kg) in vehicle by oral gavage about 40 minutes after injection.

Row | Structure (SMILES) | reversal of acute pain induced by capsaicin injection
25 | Cc1cc(NC(=S)C(C#N)=C(O)C2CC2)ccc1C(F)(F)F [Example 1, 2-Cyano-3-cyclopropyl-3-hydroxy-N-(3-methyl-4-trifluormethyl-phenyl)-thioacrylamide] | can reverse acute pain
26 | Cc1cc(NC(=S)C(C#N)=C(O)C2CC2)ccc1F [Example 2, 2-Cyano-3-cyclopropyl-N-(4-fluoro-3-methyl-phenyl)-3-hydroxy-thioacrylamide] | can reverse acute pain
27 | Cc1cc(NC(=S)C(C#N)=C(O)C2CC2)ccc1[N+](=O)[O-] [Example 3, 2-Cyano-3-cyclopropyl-3-hydroxy-N-(3-methyl-4-nitro-phenyl)-thioacrylamide] | can reverse acute pain

same assay, conditions: Experiment 1, 1 mg/kg oral gavage about 40 minutes after capsaicin; 150 minutes after capsaicin injection

Row | Structure (SMILES) | 50% paw withdrawal threshold [g]
28 | Cc1cc(NC(=S)C(C#N)=C(O)C2CC2)ccc1C(F)(F)F [Example 1, 2-Cyano-3-cyclopropyl-3-hydroxy-N-(3-methyl-4-trifluormethyl-phenyl)-thioacrylamide] | 30
29 | Cc1cc(NC(=S)C(C#N)=C(O)C2CC2)ccc1[N+](=O)[O-] [Example 3, 2-Cyano-3-cyclopropyl-3-hydroxy-N-(3-methyl-4-nitro-phenyl)-thioacrylamide] | 40

same assay, conditions: Experiment 1, 1 mg/kg oral gavage about 40 minutes after capsaicin; 210 minutes after capsaicin injection

Row | Structure (SMILES) | 50% paw withdrawal threshold [g]
30 | Cc1cc(NC(=S)C(C#N)=C(O)C2CC2)ccc1C(F)(F)F [Example 1, 2-Cyano-3-cyclopropyl-3-hydroxy-N-(3-methyl-4-trifluormethyl-phenyl)-thioacrylamide] | ~50
31 | Cc1cc(NC(=S)C(C#N)=C(O)C2CC2)ccc1[N+](=O)[O-] [Example 3, 2-Cyano-3-cyclopropyl-3-hydroxy-N-(3-methyl-4-nitro-phenyl)-thioacrylamide] | ~50

same assay, conditions: Experiment 2, 10 mg/kg oral gavage about 40 minutes after capsaicin; 150 minutes after capsaicin injection

Row | Structure (SMILES) | 50% paw withdrawal threshold [g]
32 | Cc1cc(NC(=S)C(C#N)=C(O)C2CC2)ccc1F [Example 2, 2-Cyano-3-cyclopropyl-N-(4-fluoro-3-methyl-phenyl)-3-hydroxy-thioacrylamide] | ~40

same assay, conditions: Experiment 2, 10 mg/kg oral gavage about 40 minutes after capsaicin; 210 minutes after capsaicin injection

Row | Structure (SMILES) | 50% paw withdrawal threshold [g]
33 | Cc1cc(NC(=S)C(C#N)=C(O)C2CC2)ccc1F [Example 2, 2-Cyano-3-cyclopropyl-N-(4-fluoro-3-methyl-phenyl)-3-hydroxy-thioacrylamide] | ~33
